Test results taken from patent US9695155B2, “Herbicidal substituted pyrimidinyloxy benzene compounds” (E. I. DU PONT DE NEMOURS AND COMPANY, priority 2013, dated 2017).

What was measured:
lambsquarters = experiment: Test C postemergence; type: in vivo, Chenopodium album
Method in brief: (§1)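 Whole-plant greenhouse test with surfactant-containing solvent formulation, applied preemergence to sown loam–sand pots or postemergence to 2–18 cm plants. Scored by eye 13 to 15 days on, 0–100 scale.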

giant foxtail = experiment: Test A preemergence; type: in vivo, Setaria faberii; settings: for Foxtail, Giant plant response rating: 500 g ai/ha
Method in brief: (§2)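 Compounds in non-phytotoxic solvent with surfactant applied as soil spray preemergence, or postemergence to plants 2-10 cm at one- to two-leaf stage, in loam/sand. After approximately 10 days in greenhouse, injury rated visually versus untreated controls, 0 (no effect) to 100 (complete control).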

morningglory = experiment: Test C postemergence; type: in vivo, Ipomoea coccinea
Method in brief: as §1

yellow nutsedge = experiment: Test C postemergence; type: in vivo, Cyperus esculentus
Method in brief: as §1

barnyardgrass [1] = experiment: Test A preemergence; type: in vivo, Echinochloa crus-galli; settings: for Barnyardgrass plant response rating: 500 g ai/ha
Method in brief: as §2

barnyardgrass [2] = experiment: Test B flooded paddy test; type: in vivo, Echinochloa crus-galli; settings: Flood, 250 g ai/ha; 0 to 100 scale where 0 is no effect and 100 is complete control
Method in brief: (§3)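 Flooded to 3 cm at the 2-leaf stage, pots received compound through the paddy water and were kept at that depth under greenhouse conditions. After 13–15 days, effect was rated by eye relative to controls, 0 = none and 100 = complete control.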

velvetleaf = experiment: Test C postemergence; type: in vivo, Abutilon theophrasti
Method in brief: as §1

rice = experiment: Test B flooded paddy test; type: in vivo, Oryza sativa; settings: Flood, 250 g ai/ha; 0 to 100 scale where 0 is no effect and 100 is complete control
Method in brief: as §3

galium = experiment: Test C postemergence; type: in vivo, Galium aparine; settings: for Plant response rating, Galium / Galium plant response rating: scale 0 to 100 (0 no effect, 100 complete control)
Method in brief: as §1

Heteranthera limosa = experiment: Test B flooded paddy test; type: in vivo; settings: Flood, 250 g ai/ha; 0 to 100 scale where 0 is no effect and 100 is complete control
Method in brief: as §3

wheat, winter = experiment: Test C postemergence; type: in vivo, Triticum aestivum
Method in brief: as §1

ragweed = experiment: Test C postemergence; type: in vivo, Ambrosia elatior
Method in brief: as §1

sedge, umbrella = experiment: Test B flooded paddy test; type: in vivo, Cyperus difformis; settings: Flood, 250 g ai/ha; 0 to 100 scale where 0 is no effect and 100 is complete control
Method in brief: as §3

chickweed = experiment: Test C postemergence; type: in vivo, Stellaria media; settings: for Plant response rating, Chickweed / Chickweed plant response rating: scale 0 to 100 (0 no effect, 100 complete control)
Method in brief: as §1

[3] = 16 g ai/ha, postemergence, 0 is no effect, 100 is complete control
[4] = 125 g ai/ha, postemergence, visual rating, scale 0 to 100 (0 no effect, 100 complete control)
[5] = Postemergence, 62 g ai/ha, scale 0 to 100 (0 no effect, 100 complete control)
[6] = 31 g ai/ha, 0 to 100 scale where 0 is no effect and 100 is complete control, visual, approximately 10 days
[7] = 125 g ai/ha, 0 to 100 scale where 0 is no effect and 100 is complete control
[8] = 125 g ai/ha, postemergence, visual rating
[9] = 31 g ai/ha, postemergence, visual rating, scale 0 to 100 (0 no effect, 100 complete control), 13 to 15 days
[10] = Postemergence, 62 g ai/ha, scale 0 to 100 (0 no effect, 100 complete control), 13 to 15 days
[11] = 0 to 100 scale where 0 is no effect and 100 is complete control
[12] = 31 g ai/ha, postemergence, visual rating, 13 to 15 days
[13] = Postemergence, 62 g ai/ha, 13 to 15 days
[14] = Postemergence, 31 g ai/ha, scale 0 to 100 (0 no effect, 100 complete control), 13 to 15 days
[15] = 0 to 100 scale, 0 no effect, 100 complete control, approx. 10 days
[16] = 16 g ai/ha, postemergence, visual rating, 13 to 15 days
[17] = Postemergence, 31 g ai/ha, 13 to 15 days

Compound: N#Cc1cnn(-c2c(Br)cccc2Oc2ncc(Cl)cn2)c1 [Compound 140]
- Plant response rating (0 to 100), Lambsquarters (lambsquarters; [3]): 35
- Plant response rating, Lambsquarters (lambsquarters; [4]): 85
- Plant response rating, Lambsquarters (lambsquarters; [5]): 80
- Plant response rating, Foxtail, Giant (giant foxtail; [6]): 50
- Plant response rating, Foxtail, Giant (giant foxtail; [7]): 100
- Plant response rating (0 to 100), Morningglory (morningglory; [3]): 0
- Plant response rating, Morningglory (morningglory; [4]): 70
- Plant response rating, Morningglory (morningglory; [5]): 75
- Plant response rating (0 to 100), Nutsedge, Yellow (yellow nutsedge; [3]): 0
- Plant response rating, Nutsedge, Yellow (yellow nutsedge; [4]): 5
- Plant response rating, Nutsedge, Yellow (yellow nutsedge; [5]): 5
- Plant response rating, Barnyardgrass (barnyardgrass [1]; [6]): 30
- Plant response rating, Barnyardgrass (barnyardgrass [1]; [7]): 70
- Plant response rating, Barnyardgrass (barnyardgrass [2]): 20
- Plant response rating (0 to 100), Velvetleaf (velvetleaf; [3]): 5
- Plant response rating, Velvetleaf (velvetleaf; [4]): 60
- Plant response rating, Velvetleaf (velvetleaf; [5]): 45
- Plant response rating, Rice (rice): 0
- Plant response rating (0 to 100), Galium (galium; [3]): 50
- Plant response rating, Galium (galium; [8]): 95
- Plant response rating, Galium (galium; Postemergence, 62 g ai/ha): 90
- Plant response rating, Ducksalad (Heteranthera limosa): 80
- Plant response rating (0 to 100), Wheat (wheat, winter; [3]): 0
- Plant response rating, Wheat (wheat, winter; [4]): 10
- Plant response rating, Wheat (wheat, winter; [5]): 0
- Plant response rating (0 to 100), Ragweed (ragweed; [3]): 25
- Plant response rating, Ragweed (ragweed; [4]): 75
- Plant response rating, Ragweed (ragweed; [5]): 60
- Plant response rating, Sedge, Umbrella (sedge, umbrella): 80
- Plant response rating (0 to 100), Chickweed (chickweed; [3]): 30
- Plant response rating, Chickweed (chickweed; [8]): 70
- Plant response rating, Chickweed (chickweed; Postemergence, 62 g ai/ha): 45

Compound: N#Cc1cnn(-c2c(Oc3ncc(F)cn3)cccc2C(F)F)c1 [Compound 240]
- Plant response rating (0 to 100), Lambsquarters (lambsquarters; [3]): 15
- Lambsquarters plant response rating (lambsquarters; [9]): 45
- Plant response rating, Lambsquarters (lambsquarters; [4]): 90
- Plant response rating, Lambsquarters (lambsquarters; [10]): 75
- Foxtail, Giant plant response rating (0 to 100 scale) (giant foxtail; 125 g ai/ha): 100
- Foxtail, Giant plant response rating (giant foxtail; [11]): 100
- Plant response rating (0 to 100), Morningglory (morningglory; [3]): 30
- Morningglory plant response rating (morningglory; [9]): 65
- Plant response rating, Morningglory (morningglory; [4]): 90
- Plant response rating, Morningglory (morningglory; [10]): 75
- Plant response rating (0 to 100), Nutsedge, Yellow (yellow nutsedge; [3]): 0
- Nutsedge, Yellow plant response rating (yellow nutsedge; [9]): 0
- Plant response rating, Nutsedge, Yellow (yellow nutsedge; [4]): 5
- Plant response rating, Nutsedge, Yellow (yellow nutsedge; [10]): 0
- Barnyardgrass plant response rating (0 to 100 scale, 0 is no effect, 100 is complete control) (barnyardgrass [1]; 125 g ai/ha): 90
- Barnyardgrass plant response rating (barnyardgrass [1]; [11]): 100
- Plant response rating, Barnyardgrass (barnyardgrass [2]): 0
- Plant response rating (0 to 100), Velvetleaf (velvetleaf; [3]): 10
- Velvetleaf plant response rating (velvetleaf; [9]): 25
- Plant response rating, Velvetleaf (velvetleaf; [4]): 80
- Plant response rating, Velvetleaf (velvetleaf; [10]): 45
- Plant response rating, Rice (rice): 0
- Plant response rating (0 to 100), Galium (galium; [3]): 35
- Galium plant response rating (galium; [12]): 40
- Plant response rating, Galium (galium; [8]): 70
- Plant response rating, Galium (galium; [13]): 55
- Plant response rating, Ducksalad (Heteranthera limosa): 50
- Plant response rating (0 to 100), Wheat (wheat, winter; [3]): 0
- Wheat plant response rating (wheat, winter; [9]): 0
- Plant response rating, Wheat (wheat, winter; [4]): 5
- Plant response rating, Wheat (wheat, winter; [10]): 5
- Plant response rating (0 to 100), Ragweed (ragweed; [3]): 35
- Ragweed plant response rating (ragweed; [9]): 40
- Plant response rating, Ragweed (ragweed; [4]): 75
- Plant response rating, Ragweed (ragweed; [10]): 55
- Plant response rating, Sedge, Umbrella (sedge, umbrella): 30
- Plant response rating (0 to 100), Chickweed (chickweed; [3]): 5
- Chickweed plant response rating (chickweed; [12]): 5
- Plant response rating, Chickweed (chickweed; [8]): 55
- Plant response rating, Chickweed (chickweed; [13]): 55

Compound: Cc1cnc(Oc2cccc(C#N)c2-n2cc(C#N)cn2)nc1 [Compound 90]
- Plant response rating (0 to 100), Lambsquarters (lambsquarters; 125 g ai/ha, postemergence): 60
- Plant response rating, Lambsquarters (lambsquarters; [14]): 75
- Plant response rating, Lambsquarters (lambsquarters; [5]): 60
- Plant response rating, Foxtail, Giant (giant foxtail; [7]): 90
- Foxtail, Giant plant response rating (giant foxtail; [15]): 100
- Plant response rating (0 to 100), Morningglory (morningglory; 125 g ai/ha, postemergence): 85
- Plant response rating, Morningglory (morningglory; [14]): 60
- Plant response rating, Morningglory (morningglory; [5]): 75
- Plant response rating (0 to 100), Nutsedge, Yellow (yellow nutsedge; 125 g ai/ha, postemergence): 10
- Plant response rating, Nutsedge, Yellow (yellow nutsedge; [14]): 5
- Plant response rating, Nutsedge, Yellow (yellow nutsedge; [5]): 10
- Plant response rating, Barnyardgrass (barnyardgrass [1]; [7]): 70
- Barnyardgrass plant response rating (barnyardgrass [1]; [15]): 100
- Plant response rating, Barnyardgrass (barnyardgrass [2]): 0
- Plant response rating (0 to 100), Velvetleaf (velvetleaf; 125 g ai/ha, postemergence): 60
- Plant response rating, Velvetleaf (velvetleaf; [14]): 55
- Plant response rating, Velvetleaf (velvetleaf; [5]): 60
- Plant response rating, Rice (rice): 0
- Galium plant response rating (galium; [16]): 70
- Plant response rating (0 to 100), Galium (galium; 125 g ai/ha, postemergence): 85
- Plant response rating, Galium (galium; [17]): 55
- Plant response rating, Galium (galium; Postemergence, 62 g ai/ha): 65
- Plant response rating, Ducksalad (Heteranthera limosa): 40
- Plant response rating (0 to 100), Wheat (wheat, winter; 125 g ai/ha, postemergence): 0
- Plant response rating, Wheat (wheat, winter; [14]): 0
- Plant response rating, Wheat (wheat, winter; [5]): 0
- Plant response rating (0 to 100), Ragweed (ragweed; 125 g ai/ha, postemergence): 65
- Plant response rating, Ragweed (ragweed; [14]): 40
- Plant response rating, Ragweed (ragweed; [5]): 50
- Plant response rating, Sedge, Umbrella (sedge, umbrella): 40
- Chickweed plant response rating (chickweed; [16]): 5
- Plant response rating (0 to 100), Chickweed (chickweed; 125 g ai/ha, postemergence): 50
- Plant response rating, Chickweed (chickweed; [17]): 30
- Plant response rating, Chickweed (chickweed; Postemergence, 62 g ai/ha): 15
